In patent US12630547B2, “RAS protein degraders, pharmaceutical compositions thereof, and their therapeutic applications” (BioTheryX, Inc., priority 2019, dated 2026):

Legend:
Format in all cases: cell-based
MOLM-13 cells = test: Cell viability assay (CELLTITER-GLO), MOLM-13 cells; conditions: Homo sapiens, MOLM-13, 72 h; Table 2; compound at 10 μM, 3 days; read-out: Effect on MOLM-13 cell viability (% DMSO)
Description: (§1) MOLM-13 cells, MV-4-11 cells, H23, and H358 cells were independently cultured in RPMI 1640 media supplemented with 10% fetal bovine serum, streptomycin and penicillin. The cells were plated in white walled 96-well plates at 4,000 cells/well. The cells were incubated in DMSO (control) or a compound for 3 days at 37° C. under 5% CO2. A CELLTITER-GLO® reagent (100 μL) was then added to each well. After a 10 min incubation with shaking, luminescence was measured using an ENVISION® multimode plate reader.
In Tables 1 and 2, each compound was tested at 10 μM; and in Table 3, each compound was tested at 1 μM. In Tables 1 to 3, the cell viability values as % DMSO are reported as “A,” “B,” “C,” or “D;” where “A” represents a % viability value of less than 10%; “B” represents a % viability value of no less than 10% and less than 25%; “C” represents a % viability value of no less than 25% and less than 50%; and “D” represents a % viability value of no less than 50%. Compound A is […]

H358 cells = test: Cell viability assay (CELLTITER-GLO), H358 cells; conditions: Table 4; 3 days
Description: as §1
In Tables 1 and 2, each compound was tested at 10 μM; and in Table 3, each compound was tested at 1 μM. In Tables 1 to 3, the cell viability values as % DMSO are reported as “A,” “B,” “C,” or “D;” where “A” represents a % viability value of less than 10%; “B” represents a % viability value of no less than 10% and less than 25%; “C” represents a % viability value of no less than 25% and less than 50%; and “D” represents a % viability value of no less than 50%. Compound A is
(§2) IC50 values are summarized in Table 4, where “A” represents an IC50 value of no greater than 1 μM, “B” represents an IC50 value of greater than 1 μM and no greater than 5 μM, “C” represents an IC50 value of greater than 5 μM and no greater than 10 μM, and “D” represents an IC50 value of greater than 10 μM.

H23 cells = test: Cell viability assay (CELLTITER-GLO), H23 cells; conditions: Table 4; 3 days
Description: as §1, §2

| Inhibition of H358 cells, IC50 (class) (H358 cells) | Structure (SMILES) | viability at 10 µM (MOLM-13 cells) | Inhibition of H23 cells, IC50 (class) (H23 cells) |
| --- | --- | --- | --- |
|  | CCC(=O)N1CCN(c2ncnc3c(F)c(-c4c(F)cccc4OCCCCCCCNCc4ccc(OCc5scc6c5CN([C@H]5CCC(=O)NC5=O)C6=O)cc4)c(Cl)cc23)CC1 [Compound 25, (3S)-3-(1-((4-(((7-(2-(6-Chloro-8-fluoro-4-(4-propionylpiperazin-1-yl)quinazolin-7-yl)-3-fluorophenoxy)heptyl)amino)methyl)phenoxy)methyl)-4-oxo-4H-thieno[3,4-c]pyrrol-5(6H)-yl)piperidine-2,6-dione] | < 10% |  |
|  | CCC(=O)N1CC(c2nc3ccc(-c4cc(O)cc5ccccc45)cc3c(=O)n2CCOCCNCc2ccc(OCc3scc4c3CN(C3CCC(=O)NC3=O)C4=O)cc2)C1 (centres unmarked) [Compound 26, 3-(1-((4-(((2-(2-(6-(3-Hydroxynaphthalen-1-yl)-4-oxo-2-(1-propionylazetidin-3-yl)quinazolin-3(4H)-yl)ethoxy)ethyl)amino)methyl)phenoxy)methyl)-4-oxo-4H-thieno[3,4-c]pyrrol-5(6H)-yl)piperidine-2,6-dione] | ≥ 50% |  |
|  | C=CC(=O)N1CCN(c2ncnc3c(F)c(-c4c(F)cccc4OCCCCCCCNC(=O)NCc4scc5c4CN(C4CCC(=O)NC4=O)C5=O)c(Cl)cc23)CC1 (centres unmarked) [Compound 27, 1-(7-(2-(4-(4-Acryloylpiperazin-1-yl)-6-chloro-8-fluoroquinazolin-7-yl)-3-fluorophenoxy)heptyl)-3-((5-(2,6-dioxopiperidin-3-yl)-4-oxo-5,6-dihydro-4H-thieno[3,4-c]pyrrol-1-yl)methyl)urea] | < 10% |  |
|  | CCC(=O)N1CCN(c2ncnc3c(F)c(-c4c(F)cccc4OCCCCCCCNC(=O)NCc4scc5c4CN(C4CCC(=O)NC4=O)C5=O)c(Cl)cc23)CC1 (centres unmarked) [Compound 28, 1-(7-(2-(6-Chloro-8-fluoro-4-(4-propionylpiperazin-1-yl)quinazolin-7-yl)-3-fluorophenoxy)heptyl)-3-((5-(2,6-dioxopiperidin-3-yl)-4-oxo-5,6-dihydro-4H-thieno[3,4-c]pyrrol-1-yl)methyl)urea] | < 10% |  |
|  | C=CC(=O)N1CCN(c2ncnc3c(F)c(-c4c(F)cccc4OCCOCCOCCC(=O)NCCNc4cccc5c4CN(C4CCC(=O)NC4=O)C5=O)c(Cl)cc23)CC1 (centres unmarked) [Compound 29, 3-(2-(2-(2-(4-(4-Acryloylpiperazin-1-yl)-6-chloro-8-fluoroquinazolin-7-yl)-3-fluorophenoxy)ethoxy)ethoxy)-N-(2-((2-(2,6-dioxopiperidin-3-yl)-1-oxoisoindolin-4-yl)amino)ethyl)propanamide] | < 10% |  |
|  | CCC(=O)N1CCN(c2ncnc3c(F)c(-c4c(F)cccc4OCCOCCOCCC(=O)NCCNc4cccc5c4CN(C4CCC(=O)NC4=O)C5=O)c(Cl)cc23)CC1 (centres unmarked) [Compound 30, 3-(2-(2-(2-(6-chloro-8-fluoro-4-(4-propionylpiperazin-1-yl)quinazolin-7-yl)-3-fluorophenoxy)ethoxy)ethoxy)-N-(2-((2-(2,6-dioxopiperidin-3-yl)-1-oxoisoindolin-4-yl)amino)ethyl)propanamide] | ≥ 50% |  |
|  | CC(=O)N1CCN(c2ncnc3c(F)c(-c4c(F)cccc4OCCOCCOCCOCCNc4cccc5c4C(=O)N(C4CCC(=O)NC4=O)C5=O)c(Cl)cc23)CC1 (centres unmarked) [Compound 31, 4-((2-(2-(2-(2-(2-(4-(4-Acetylpiperazin-1-yl)-6-chloro-8-fluoroquinazolin-7-yl)-3-fluorophenoxy)ethoxy)ethoxy)ethoxy)ethyl)amino)-2-(2,6-dioxopiperidin-3-yl)isoindoline-1,3-dione] | ≥ 50% |  |
|  | NC(=O)N1CCN(c2ncnc3c(F)c(-c4c(F)cccc4OCCOCCOCCOCCNc4cccc5c4C(=O)N(C4CCC(=O)NC4=O)C5=O)c(Cl)cc23)CC1 (centres unmarked) [Compound 32, 4-(6-Chloro-7-(2-(2-(2-(2-(2-((2-(2,6-dioxopiperidin-3-yl)-1,3-dioxoisoindolin-4-yl)amino)ethoxy)ethoxy)ethoxy)ethoxy)-6-fluorophenyl)-8-fluoroquinazolin-4-yl)piperazine-1-carboxamide] | ≥ 50% |  |
|  | CCC(=O)N1CCN(c2ncnc3c(F)c(-c4c(F)cccc4OCCCCCCCCNc4cccc5c4C(=O)N(C4CCC(=O)NC4=O)C5=O)c(Cl)cc23)CC1 (centres unmarked) [Compound 33, 4-((8-(2-(6-Chloro-8-fluoro-4-(4-propionylpiperazin-1-yl)quinazolin-7-yl)-3-fluorophenoxy)octyl)amino)-2-(2,6-dioxopiperidin-3-yl)isoindoline-1,3-dione] | 25 to 50% |  |
|  | C=CC(=O)N1CCN(c2ncnc3c(F)c(-c4c(F)cccc4OCCCCCCCCNc4cccc5c4C(=O)N(C4CCC(=O)NC4=O)C5=O)c(Cl)cc23)CC1 (centres unmarked) [Compound 34, 4-((8-(2-(4-(4-Acryloylpiperazin-1-yl)-6-chloro-8-fluoroquinazolin-7-yl)-3-fluorophenoxy)octyl)amino)-2-(2,6-dioxopiperidin-3-yl)isoindoline-1,3-dione] | 10 to 25% |  |
|  | CCC(=O)N1CC(N2Cc3ccc(-c4cc(O)cc5ccccc45)cc3N(CC(=O)NCCCCCCCN3CCC(c4cc(F)cc5c4CN(C4CCC(=O)NC4=O)C5=O)CC3)C2=O)C1 (centres unmarked) [Compound 35, N-(7-(4-(2-(2,6-Dioxopiperidin-3-yl)-6-fluoro-1-oxoisoindolin-4-yl)piperidin-1-yl)heptyl)-2-(7-(3-hydroxynaphthalen-1-yl)-2-oxo-3-(1-propionylazetidin-3-yl)-3,4-dihydroquinazolin-1(2H)-yl)acetamide] | 10 to 25% |  |
| D′ | C=CC(=O)N1CCN(c2ncnc3c(F)c(-c4cc(OCCOCCOCCC(=O)NCCNc5cccc6c5CN(C5CCC(=O)NC5=O)C6=O)ccc4F)c(Cl)cc23)CC1 [Compound 39, 3-(2-(2-((R)-3-(4-(4-Acryloylpiperazin-1-yl)-6-chloro-8-fluoroquinazolin-7-yl)-4-fluorophenoxy)ethoxy)ethoxy)-N-(2-((2-(2,6-dioxopiperidin-3-yl)-1-oxoisoindolin-4-yl)amino)ethyl)propanamide] |  | D′ |
| C′ | C=CC(=O)N1CCN(c2nc(OCCOCCOCCOCCNc3cccc4c3C(=O)N(C3CCC(=O)NC3=O)C4=O)nc3c2CCN(c2cccc4ccccc24)C3)C[C@H]1C (stereo partly drawn) [Compound 47, 4-((2-(2-(2-(2-((4-((R)-4-Acryloyl-3-methylpiperazin-1-yl)-7-(naphthalen-1-yl)-5,6,7,8-tetrahydropyrido[3,4-d]pyrimidin-2-yl)oxy)ethoxy)ethoxy)ethoxy)ethyl)amino)-2-(2,6-dioxopiperidin-3-yl)isoindoline-1,3-dione] |  | B′ |
| D′ | CCC(=O)N1CCN(c2nc(OCCOCCOCCOCCNc3cccc4c3C(=O)N(C3CCC(=O)NC3=O)C4=O)nc3c2CCN(c2cccc4ccccc24)C3)C[C@H]1C (stereo partly drawn) [Compound 48, 2-(2,6-Dioxopiperidin-3-yl)-4-((2-(2-(2-(2-((4-((R)-3-methyl-4-propionylpiperazin-1-yl)-7-(naphthalen-1-yl)-5,6,7,8-tetrahydropyrido[3,4-d]pyrimidin-2-yl)oxy)ethoxy)ethoxy)ethoxy)ethyl)-amino)isoindoline-1,3-dione] |  | D′ |
| B′ | CCC(=O)N1CCN(c2ncnc3c(Cl)c(-c4c(F)cccc4OCCCCCCCCN4CCC(c5cc(F)cc6c5CN(C5CCC(=O)NC5=O)C6=O)CC4)c(F)cc23)CC1 [Compound 49, 3-(4-(1-(8-((R)-2-(8-Chloro-6-fluoro-4-(4-propionylpiperazin-1-yl)quinazolin-7-yl)-3-fluorophenoxy)octyl)piperidin-4-yl)-6-fluoro-1-oxoisoindolin-2-yl)piperidine-2,6-dione] |  | B′ |
| A′ | C=CC(=O)N1CCN(c2ncnc3c(F)c(-c4c(F)cccc4OCCCCCCC(=O)N[C@H](C(=O)N4C[C@H](O)C[C@H]4C(=O)NCc4ccc(-c5scnc5C)cc4)C(C)(C)C)c(Cl)cc23)CC1 [Compound 50, (2S,4R)-1-((2S)-2-(7-(2-(4-(4-Acryloylpiperazin-1-yl)-6-chloro-8-fluoroquinazolin-7-yl)-3-fluorophenoxy)heptanamido)-3,3-dimethylbutanoyl)-4-hydroxy-N-(4-(4-methylthiazol-5-yl)benzyl)pyrrolidine-2-carboxamide] |  | B′ |
| B′ | O=C1CCC(N2Cc3c(cc(F)cc3C3CCN(CCCCCCCOc4cccc(F)c4-c4c(Cl)cc5c(N6CCN(C(=O)C7CCCC7)CC6)ncnc5c4F)CC3)C2=O)C(=O)N1 (centres unmarked) [Compound 51, 3-(4-(1-(7-(2-(6-Chloro-4-(4-(cyclopentanecarbonyl)piperazin-1-yl)-8-fluoroquinazolin-7-yl)-3-fluorophenoxy)heptyl)piperidin-4-yl)-6-fluoro-1-oxoisoindolin-2-yl)piperidine-2,6-dione] |  | B′ |
